Assay in all cases: inhibition of tumour cell growth, NCI panel, 48 h
The test system of experiment [1] is PC-3 prostate.
Experiment [2] relates to SK-MEL-5 melanoma.
Experiment [3] relates to MDA-N.
Experiment [4] relates to 786-0 renal.
Experiment [5] deals with MOLT-4 leukemia.
Experiment [6] deals with OVCAR-8 ovarian.
Experiment [7] deals with NCI-H226 lung.
For experiment [8], the system named is M14 melanoma.
Experiment [9] relates to UACC-62 melanoma.
Experiment [10] deals with OVCAR-5 ovarian.
The test system of experiment [11] is DU-145 prostate.
In experiment [12] the test system is HL-60(TB) leukemia.
For experiment [13], the system named is KM12 colon.
Experiment [14] relates to MDA-MB-435.
Experiment [15] concerns SNB-75 CNS.
The test system of experiment [16] is MALME-3M melanoma.
Experiment [17] deals with HOP-62 NSCLC.

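Five compound concentrations were applied to cells in 96-well plates for 48 hours; endpoints were derived by simple linear interpolation of the resulting dose-response curve. TGI denotes the concentration required for complete inhibition of growth.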 Where a SMILES comes first, the peptide text is derived from it. Bridges are numbered along the chain shown (N, C = ends). The star is where a group is joined. Cbz = O=C(OCc1ccccc1)* Bounds are passed on as bounds.

`Cc1cccc(Nc2nc3ccccc3nc2NS(=O)(=O)c2ccc(N)cc2)c1`: the TGI is more than 100 µM in experiment [1]; more than 100 µM in [2]; more than 100 µM in [3]; more than 100 µM in experiment [4]; 59.5 µM in experiment [5]; more than 100 µM in experiment [6]. The TGI in experiment [7], in experiment [8], in experiment [9], in experiment [10], in experiment [11] and in experiment [12] was more than 100 µM throughout. Further, the TGI in experiment [13], in [14], in [15], in experiment [16] and in [17] was more than 100 µM throughout.
With `Cc1ccc(S(=O)(=O)NNC(=O)Nc2cccc(C(F)(F)F)c2)cc1`, the TGI in experiment [1], in experiment [2], in experiment [3], in experiment [4], in experiment [5] and in experiment [6] was more than 100 µM each time. The TGI in [7], in experiment [8], in [9], in experiment [10], in experiment [11] and in experiment [12] was more than 100 µM each time. Moreover, the TGI is more than 100 µM in experiment [13]; more than 100 µM in experiment [14]; 53.7 µM in experiment [15]; more than 100 µM in experiment [16]; more than 100 µM in experiment [17].
Regarding `CNC(=O)C1CCCCNC(=O)CCC(NC(=O)OCc2ccccc2)C(=O)N1` (stereo not drawn) (Cbz-Glu-Lys-NHMe; lactam 1-2; configuration not given here), the TGI in experiment [1], in [2], in [3], in [4], in experiment [5] and in experiment [6] was more than 100 µM each time. The TGI in experiment [7], in experiment [8], in experiment [9], in experiment [10], in experiment [11] and in experiment [12] was more than 100 µM throughout. In addition, the TGI in experiment [13], in experiment [14], in [15], in experiment [16] and in experiment [17] was more than 100 µM throughout.
As to `COc1cccc(OC)c1C1ON=C(c2ccccc2)N1C12CC3CC(CC(C3)C1)C2` (stereo unspecified), the TGI in experiment [1], in [2], in experiment [3], in [4], in experiment [5] and in experiment [6] was more than 100 µM each time. The TGI was more than 100 µM in experiment [7]; more than 100 µM in [8]; more than 100 µM in experiment [9]; more than 100 µM in experiment [10]; more than 100 µM in [11]; 4.63 µM in [12]. Moreover, the TGI in experiment [13], in experiment [14], in experiment [15], in experiment [16] and in experiment [17] was more than 100 µM in each case.
`CC(CN1NC12CCCC2)N1NC12CCCC2` (stereo unspecified): the TGI in experiment [1], in experiment [2], in experiment [3], in experiment [4], in experiment [5] and in experiment [6] was more than 100 µM each time. For the same compound, the TGI in [7], in [8], in experiment [9], in experiment [10], in experiment [11] and in experiment [12] was more than 100 µM in each case. Moreover, the TGI in [13], in experiment [14], in experiment [15], in experiment [16] and in experiment [17] was more than 100 µM in each case.
With `COC(=O)c1c(O)c(C#N)c2[nH]c3ccccc3n2c1=O`, the TGI in experiment [1], in experiment [2], in experiment [3], in [4], in experiment [5] and in [6] was more than 100 µM in each case. The TGI in [7], in [8], in experiment [9], in experiment [10], in [11] and in experiment [12] was more than 100 µM in each case. Moreover, the TGI in [13], in [14], in experiment [15], in experiment [16] and in experiment [17] was more than 100 µM each time.
As for `O=C1c2ccccc2-c2nnc3c(c21)Cc1ccccc1C3`, the TGI in experiment [1], in [2], in [3], in [4], in experiment [5] and in [6] was more than 10 µM each time. Further, the TGI in [7], in [8], in experiment [9], in [10], in [11] and in experiment [12] was more than 10 µM in each case. Further, the TGI in experiment [13], in experiment [14], in experiment [15], in [16] and in experiment [17] was more than 10 µM each time.
`COc1ccc2c(c1)/C(=C/c1c(O)[nH]c(=S)[nH]c1=O)C=N2`: the TGI in experiment [1], in experiment [2], in experiment [3], in [4], in [5] and in experiment [6] was more than 100 µM each time. The TGI in experiment [7], in experiment [8], in experiment [9], in experiment [10], in [11] and in experiment [12] was more than 100 µM throughout. Further, the TGI in [13] is more than 100 µM; in experiment [14], more than 100 µM; in [15], 49.9 µM; in [16], more than 100 µM; in experiment [17], more than 100 µM.
As for `C#CCOC(=O)C(N)CC(N)=O` (stereo unspecified), the TGI in [1], in experiment [2], in experiment [3], in experiment [4], in experiment [5] and in experiment [6] was more than 100 µM throughout. Further, the TGI in [7], in [8], in experiment [9], in [10], in [11] and in [12] was more than 100 µM in each case. The TGI in experiment [13], in experiment [14], in experiment [15], in experiment [16] and in [17] was more than 100 µM in each case.
As to `O=C(O)c1cc(CCc2ccc(O)c(O)c2)ccc1O`, the TGI was more than 100 µM in experiment [1]; more than 100 µM in [2]; 32.3 µM in experiment [3]; more than 100 µM in experiment [4]; more than 100 µM in [5]; more than 100 µM in [6]. Besides, the TGI was more than 100 µM in experiment [7]; more than 100 µM in experiment [8]; more than 100 µM in experiment [9]; more than 100 µM in experiment [10]; more than 100 µM in experiment [11]; 59.2 µM in experiment [12]. For the same compound, the TGI in experiment [13], in [14], in experiment [15], in experiment [16] and in [17] was more than 100 µM each time.
For `COc1ccc(/C=C/C(=O)c2cc(OC)cc(OC)c2)cc1`, the TGI in experiment [1] is 20.7 µM; in [2] it was 24.2 µM; in experiment [3] it was 5.33 µM; in [4], 11.2 µM; in experiment [5], more than 26.6 µM; in experiment [6] it was 18.3 µM. The TGI came to 31.6 µM in experiment [7]; 6.83 µM in [8]; 16.9 µM in [9]; 18.1 µM in experiment [10]; 10.8 µM in experiment [11]; 9.73 µM in [12]. The TGI in experiment [13] is 2.23 µM; in experiment [14], 3.45 µM; in [15], 8.19 µM; in experiment [16] it was 27.8 µM; in experiment [17], 14.6 µM.
On to `CCNC1=C(NC(=O)c2ccc(F)cc2)C(=O)c2ccccc2C1=O`, for which the TGI in [1], in experiment [2], in [3], in experiment [4], in experiment [5] and in experiment [6] was more than 100 µM throughout. Besides, the TGI in experiment [7] is more than 100 µM; in experiment [8] it was 63.5 µM; in [9], more than 100 µM; in experiment [10], more than 100 µM; in experiment [11], more than 100 µM; in experiment [12] it was more than 100 µM. In addition, the TGI in experiment [13] was more than 100 µM; in experiment [14], 35.9 µM; in experiment [15], more than 100 µM; in experiment [16], 47.5 µM; in [17] it was more than 100 µM.
As to `O=C(CCC(=O)c1ccsc1)c1ccsc1`, the TGI in [1], in experiment [2], in [3], in [4], in experiment [5] and in experiment [6] was more than 100 µM in each case. Also, the TGI in experiment [7], in experiment [8], in experiment [9], in [10], in experiment [11] and in experiment [12] was more than 100 µM in each case. The TGI in [13], in experiment [14], in experiment [15], in experiment [16] and in experiment [17] was more than 100 µM in each case.

These data come from PubChem BioAssay (NCI).
